Source: publication PMC6270094, “Dibenzo[1,2,5]thiadiazepines Are Non-Competitive GABAA Receptor Antagonists” (Molecules, 2013)
Read-outs that look alike come from different tables or passages of the source.

Tests used:
[1] = tested on: native GABAA receptors of guinea pig myenteric neurons; test: Whole-cell recordings of membrane currents induced by GABA (IGABA) in cultured myenteric neurons; assay type: cell-based; settings: for Voltage dependence of inhibitory effect (−60 mV vs +40 mV) / Time constant (t) of IGABA inhibition / Time to reach maximum inhibition: 100 μM DBTD; for Time constant (t) of IGABA inhibition: 3–180 s, Michaelis–Menten fit; for Time to reach maximum inhibition: after initial exposure; for Percentage of inhibition of GABA-induced inward currents: 100 μM compound, 3 min treatment, mean ± SEM (n); for Amplitude of IGABA with compound inside the pipette: 2b 100 μM internal; for Reversibility of current inhibition on washing: within five minutes of washing; for Effect of maximal antagonist concentration on IGABA: maximal concentrations used
Excerpt: Guinea pigs (100–200 g; either male or female) were sacrificed by cervical dislocation and carotid exsanguination. These methods have been approved by the Animal Care Committee of the IPICYT and are in agreement with the published Guiding Principles in the Care and Use of Animals, approved by the American Physiological Society. A segment of ~10 cm of the jejunum was removed and placed in a modified Krebs solution (in mM: NaCl, 126; NaH2PO4, 1.2; MgCl2, 1.2; CaCl2, 2.5; KCl, 5; NaH2CO3, 25; glucose, 11. The sample was gassed under 95% O2 and 5% CO2) and opened longitudinally. A dissecting microscope was used to dissect the mucosa and submucosa layers prior to removing most of the circular muscle layer, leaving the myenteric plexus embedded in a longitudinal layer.
The cell isolation procedure has been described elsewhere. The myenteric preparation was dissociated by sequential treatment with two enzymatic solutions: the first solution contained papain (0.01 mL·mL^−1 activated with 0.4 mg·mL^−1L-cysteine), and the second solution contained collagenase (1 mg·mL^−1) and dispase (4 mg·mL^−1). The enzymes were removed by washing the neurons with L15 medium, and the neurons were placed on round coverslips coated with sterile rat-tail collagen. The culture medium was varied from minimal medium to essential medium 97.5% containing 2.5% guinea pig serum, 2 mM L-glutamine, 10 U·mL^−1 penicillin, 10 μg·mL^−1 streptomycin, and 15 mM glucose.
To reduce the effects of the membrane currents other than those mediated by the activation of LGIC, experiments were conducted in the presence of Cs^+ (a potassium channel blocker). […] The holding potential was −60 mV (unless otherwise stated), and the short-term (4–50 h) primary cultures of the myenteric neurons were used to prevent space-clamp problems due to neurite growth. Glass pipettes with a resistance of 2–5 MΩ were prepared as described previously. This low resistance and slight suction inside the pipette during the recordings maintained a low series resistance (around 6 MΩ).
All experiments were conducted using standard solutions with the following compositions (in mM); inside the pipette: CsCl, 160; EGTA, 10; HEPES, 5; NaCl, 10; ATPMg, 3 and GTP, 0.1; external solution: NaCl, 160; CaCl2, 2; glucose, 11; HEPES, 5 and CsCl, 3. The pH of all solutions was adjusted to 7.3–7.4 using either CsOH (pipette solution) or NaOH (external solution). The seal resistance in the whole-cell mode ranged from 1 to 10 GΩ. The whole-cell current data were recorded on a PC using the AxoScope software (Axon Instruments, Inc.) and were analyzed using the AXOGRAPH software (Molecular Devices, CA, USA). The recording chamber was superfused with an external solution at ~2 mL·min^−1. The solution around the neuron was quickly exchanged during recordings using an eight-tube device. Each tube was connected to a syringe (10 mL) containing either the control or the experimental solution. A control tube was positioned ~300 μm in front of the recorded neuron, and substances were applied externally by abruptly interchanging the tube for another tube containing the control solution plus the drug(s). […] Experimental substances were removed by returning to the control solution. External solutions were applied by gravity, and the height of the syringes was continuously adjusted to minimize changes in the flow rate. The experiments were performed at room temperature (24 ± 1 °C).
L15 medium, minimum essential medium, Hanks solution, penicillin-streptomycin, and L-glutamine were purchased from GIBCO (Life Technologies Corp., Carlsbad, CA, USA). Collagenase and papain were purchased from Worthington (Worthington Biochemical Corp., Lakewood, NJ, USA), and dispase was purchased from Roche (Indianapolis, IN, USA). […] Pentobarbital-Na was purchased from Lab Ttokkyo, S.A. (México, D.F., Mexico).

[2] = Solubility under the electrophysiological experimental conditions; assay type: physicochemical; settings: for solubility: under experimental conditions, read-out: Highest soluble concentration (insoluble above)
Description: To investigate this possibility, we added 100 μM 2b to the pipette solution (internal) and monitored IGABA, and we applied 2b to the outside of the cells and monitored the inhibitory effects (Figure 6). Experiments were performed using 2b, even though cLog P was less than 2, because 2c and 2d were insoluble under the conditions employed. […] Consistent with these findings, in recordings with 2b in the pipette, the amplitude of IGABA was the same 5 min (−1536 ± 379 pA) and 10 min (−1604 ± 409 pA; n = 4) after obtaining the whole-cell configuration. […] Thus, such an inhibition was as large as that observed without 2b inside the cells (Figure 6B).

[3] = DBTD 3–1,000 μM, 3 min before 300 μM GABA, fit assuming 100% inhibition, read-out: IC50 for inhibition of IGABA by DBTDs

O=S1(=O)Nc2ccc(F)cc2Nc2ccccc21 [2b, 9-Fluoro-6,11-dihydrodibenzo[c,f][1,2,5]thiadiazepine-5,5-dioxide]
Decrease of the maximum of the GABA concentration–response curve ([1]; 100 μM 2b): ~ 50% | Type of antagonism ([1]; 100 μM 2b, GABA concentration-response curves): non-competitive | Voltage dependence of inhibitory effect (−60 mV vs +40 mV) ([1]; 300 μM GABA): identical | Time constant (t) of IGABA inhibition ([1]; 300 μM GABA): 4.9 s | Time to reach maximum inhibition [1]: 3 min | Percentage of inhibition of GABA-induced inward currents ([1]; 300 μM GABA): 50.8 ± 2.1 (12) % | Amplitude of IGABA with compound inside the pipette ([1]; 300 μM GABA, 2 to 3 min after whole cell configuration, n = 4): −1408 ± 344 pA | Amplitude of IGABA with compound inside the pipette ([1]; 5 min after whole-cell configuration): −1536 ± 379 pA | Amplitude of IGABA with compound inside the pipette ([1]; 10 min after whole-cell configuration, n = 4): −1604 ± 409 pA | IC50 [1, 3]: 104 ± 9.2 µM | Maximum effect on GABA-activated currents ([1]; at 1 mM): complete inhibition | Reversibility of current inhibition on washing [1]: fully reversed

CCOC(=O)c1ccc2c(c1)Nc1ccccc1S(=O)(=O)N2 [2f, Ethyl 6,11-dihydrodibenzo[c,f][1,2,5]thiadiazepine-9-carboxylate-5,5-dioxide]
Solubility remark (potency could not be calculated) [2]: solubility problems | Percentage of inhibition of GABA-induced inward currents ([1]; 300 μM GABA): 47.1 ± 3.7 (7) %

CN1CCc2cc3c(cc2[C@H]1[C@@H]1OC(=O)c2c1ccc1c2OCO1)OCO3 [bicuculline, reference compound]
Effect of maximal antagonist concentration on IGABA [1]: virtually abolished IGABA | IC50 ([1]; read-out: IC50 for inhibition of IGABA by GABAA inhibitors): 10 ± 2 µM

COc1ccc2c(c1)Nc1ccccc1S(=O)(=O)N2 [2e, 9-Methoxy-6,11-dihydrodibenzo[c,f][1,2,5]thiadiazepine-5,5-dioxide]
Solubility remark (potency could not be calculated) [2]: solubility problems | Percentage of inhibition of GABA-induced inward currents ([1]; 300 μM GABA): 43.7 ± 3.8 (3) %

picrotoxin [reference compound]
IC50 ([1]; bicuculline 0.1–100 μM, picrotoxin 3–1,000 μM, data not shown, read-out: IC50 for inhibition of IGABA by GABAA inhibitors): 6 ± 1 µM | Effect of maximal antagonist concentration on IGABA [1]: virtually abolished IGABA

CCOC(=O)c1ncn2c1CN(C)C(=O)c1cc(F)ccc1-2 [flumazenil, reference compound]
Effect of flumazenil alone on holding current or IGABA ([1]; 10 μM, 3 min, five neurons, data not shown): did not induce changes in the holding current or IGABA

O=S1(=O)Nc2ccccc2Nc2ccccc21 [2a, 6,11-Dihydrodibenzo[c,f][1,2,5]thiadiazepine-5,5-dioxide]
Solubility remark (potency could not be calculated) [2]: solubility problems | Percentage of inhibition of GABA-induced inward currents ([1]; 300 μM GABA): 28.4 ± 1.4 (5) %

O=S1(=O)Nc2ccc(Cl)cc2Nc2ccccc21 [2c, 9-Chloro-6,11-dihydrodibenzo[c,f][1,2,5]thiadiazepine-5,5-dioxide]
solubility [2]: ≤ 300 µM | Voltage dependence of inhibitory effect (−60 mV vs +40 mV) ([1]; 300 μM GABA): identical | Time constant (t) of IGABA inhibition ([1]; 300 μM GABA): 2.6 s | Time to reach maximum inhibition [1]: 3 min | Percentage of inhibition of GABA-induced inward currents ([1]; 300 μM GABA): 74.2 ± 3.6 (6) % | IC50 [1, 3]: 50.4 ± 6.4 µM | Interaction with picrotoxin effect ([1]; simultaneous application, n = 4): neither picrotoxin effect was modified by 2c nor the inhibitory effect of 2c was affected by picrotoxin | Reversibility of current inhibition on washing [1]: fully reversed

O=S1(=O)Nc2ccc(Br)cc2Nc2ccccc21 [2d, 9-Bromo-6,11-dihydrodibenzo[c,f][1,2,5]thiadiazepine-5,5-dioxide]
solubility [2]: ≤ 300 µM | Voltage dependence of inhibitory effect (−60 mV vs +40 mV) ([1]; 300 μM GABA): identical | Time constant (t) of IGABA inhibition ([1]; 300 μM GABA): 29.3 s | Percentage of inhibition of GABA-induced inward currents ([1]; 300 μM GABA): 74.2 ± 2.4 (10) % | Calculated time required to reach maximum inhibition ([1]; 100 μM, calculated from fit): 17 min | Calculated maximum inhibition ([1]; 100 μM, from Michaelis–Menten fit): 87.0 ± 3.0% | IC50 [1, 3]: 47.6 ± 30.3 µM | Reversibility of current inhibition on washing [1]: fully reversed

NCCCC(=O)O [GABA]
Amplitude of IGABA among different neurons ([1]; response to 300 μM GABA, −60 mV): 0.1–6 nA

O=C(O)c1ccc2c(c1)Nc1ccccc1S(=O)(=O)N2 [2g, 6,11-Dihydrodibenzo[c,f][1,2,5]thiadiazepine-9-carboxylic acid 5,5-dioxide]
melting point: 350 °C | Solubility remark (potency could not be calculated) [2]: solubility problems | Percentage of inhibition of GABA-induced inward currents ([1]; 300 μM GABA): 16.0 ± 2.4 (6) %
